Results taken from US5357044A, “Cecropins fusion proteins” (Xoma Corporation, priority 1993, dated 1994).
Ends that are not written are not given here.

Tests used:
Bacillus megaterium = conditions: background art; cited from earlier work
Erwinia carotovora EC = assay: Bactericidal agar-well halo assay, Erwinia carotovora EC; format: cell-based
Method: (§1) Agar plates (8 cm in diameter) were prepared with 6 ml of TYE medium containing about 10^7 viable cells of test organism. Wells, 2 mm diameter, were punched in the plates. The test material was dissolved in 50 mM phosphate buffer (pH 6.6) and 3 ul was applied to each well. The diameters of the inhibition zones, or halos, around the wells were measured after overnight incubation at 25° C. To determine a standard of halo formation, CA 1-33 protein was used. 1 ug and 3 ug of CA 1-33 in well applications caused halos with diameters of 8 mm and 11 mm respectively, on media infused with E. coli strain JF568. 10 ug and 30 ug of cyanogen bromide-digested pCA3A araB-CA fusion protein caused halos with diameters 7 mm and 18 mm respectively.
(§2) Cyanogen bromide-digested fusion protein fractionated by HPLC was also applied to this assay. […] Other bacterial and yeast strains were also tested in this assay. Cyanogen bromide-digested and undigested fusion protein samples were applied in the amounts described above in the testing of E. coli strain JF568, and the resulting halo diameters were measured.

E. coli 5506 DR = assay: Bactericidal agar-well halo assay, E. coli 5506 DR; format: cell-based
Method: as §1, §2

Streptococcus faecalis = assay: Bactericidal agar-well halo assay, Streptococcus faecalis; format: cell-based; conditions: ampicillin 750 ng
Method: as §1, §2

E. coli 5506 = assay: Bactericidal agar-well halo assay, E. coli 5506; format: cell-based
Method: as §1, §2

Salmonella derby = assay: Bactericidal agar-well halo assay, Salmonella derby; format: cell-based
Method: as §1, §2

[1] = test system: eight other species of bacteria; conditions: background art; cited from earlier work
E. coli = conditions: background art; cited from earlier work
Serratia marcesens = assay: Bactericidal agar-well halo assay, Serratia marcesens; format: cell-based; conditions: CNBr-digested fusion protein isolate 5 ug
Method: as §1, §2

Klebsiella pneumoniae = assay: Bactericidal agar-well halo assay, Klebsiella pneumoniae; format: cell-based; conditions: CNBr-digested fusion protein isolate 5 ug
Method: as §1, §2

Xenohabdus nematophillus = assay: Bactericidal agar-well halo assay, Xenohabdus nematophillus; format: cell-based; conditions: CNBr-digested fusion protein isolate 5 ug
Method: Cyanogen bromide-digested fusion protein fractionated by HPLC was also applied to this assay. […] Cyanogen bromide-digested and undigested fusion protein samples were applied in the amounts described above in the testing of E. coli strain JF568, and the resulting halo diameters were measured.

Pseudomonas PS-9 = assay: Bactericidal agar-well halo assay, Pseudomonas PS-9; format: cell-based; conditions: CNBr-digested fusion protein isolate 5 ug
Method: as §1, §2

[2] = CNBr-digested fusion protein isolate 5 ug

For “cecropin B: natural antibacterial peptide purified from immune hemolymph; sequence shown in b10 (KWKVFKKIEKMGRNIRNGIVKAGPAIAVLGEAKAL; UniProt P01508 27-61, looked up)”, the “sensitivity of the bacterium to the cecropin” value (shortened to “sensitivity of the bacterium”) (Bacillus megaterium) is listed as “highly sensitive”.

In the case of `CC1(C)S[C@@H]2[C@H](NC(=O)[C@H](N)c3ccccc3)C(=O)N2[C@H]1C(=O)O` [Ampicillin, ampicillin], the “Halo Activity in Millimeters” value (Erwinia carotovora EC; ampicillin 750 ng) is reported as 6.5 Millimeters, the “Halo Activity in Millimeters” value (E. coli 5506 DR; ampicillin 750 ng) is reported as 4.5 Millimeters and the “Halo Activity in Millimeters” value (Streptococcus faecalis) is reported as 7.0 Millimeters. The “Halo Activity in Millimeters” value (E. coli 5506; ampicillin 750 ng) was 4.5 Millimeters and the “Halo Activity in Millimeters” value (Salmonella derby; ampicillin 750 ng) was 6.0 Millimeters.

For “cecropin A: natural antibacterial peptide purified from immune hemolymph of the Cecropia moth (KWKLFKKIEKVGQNIRDGIIKAGPAVAVVGQATQIAK; UniProt P01507 27-63, looked up)”, the “sensitivity of the bacterium” value (Bacillus megaterium) is listed as “highly sensitive”.

For cecropin D, the “activity against eight other species of bacteria” value [1] is given as “significantly reduced activity”, the “activity against E. coli relative to cecropins A and B” value (E. coli) is given as “almost as much activity” and the “sensitivity of the bacterium” value (Bacillus megaterium) is given as “relatively resistant”.

With “pCA3D: CNBr-digested araB-CA fusion protein isolate from E. coli carrying plasmid pCA3D; releases wild type cecropin A (KWKLFKKIEKVGQNIRDGIIKAGPAVAVVGQATQIAK; ends and bridges not checked; UniProt P01507 27-63, looked up)” the “Halo Activity in Millimeters” value (Erwinia carotovora EC; [2]) was 4.75 Millimeters, the “Halo Activity in Millimeters” value (E. coli 5506 DR; [2]) was 6.5 Millimeters and the “Halo Activity in Millimeters” value (Serratia marcesens) was 1.0 Millimeters. For the same compound, the “Halo Activity in Millimeters” value (Klebsiella pneumoniae) was 4.5 Millimeters, the “Halo Activity in Millimeters” value (Xenohabdus nematophillus) was 2.75 Millimeters and the “Halo Activity in Millimeters” value (E. coli 5506; [2]) was 5.0 Millimeters. For the same compound, the “Halo Activity in Millimeters” value (Salmonella derby; [2]) was 5.0 Millimeters and the “Halo Activity in Millimeters” value (Pseudomonas PS-9) was 2.0 Millimeters.
